Columns and labels:
WiDr (NTR+ve) = test: Cell proliferation (sulphorhodamine B) IC50, NTR-transfected WiDr human colon cells; assay type: cell-based; details: for WiDr WT:NTR IC50 Ratio: 4 h, sensitivity ratio for NTR expression; for IC50: 4 h drug exposure, growth 5 further days
A549 (P450R+ve) = test: Cell proliferation (sulphorhodamine B) IC50, P450R-transfected A549 human lung cells, anoxia vs 20% O2; assay type: cell-based; details: for A549 (P450R+ve) 20% O2/anoxia IC50 Ratio: 4 h, sensitivity ratio for hypoxia
[1] = tested on: SiHa human tumour xenografts; test: SiHa xenograft excision / clonogenic assay, with or without 15 Gy radiation; assay type: in vivo; details: for Log kill, cmpd after radiation: single i.p. dose 5 min after 15 Gy, relative to radiation only; for Activity against hypoxic cells: 20% of respective MTDs, after radiation
in vivo = details: CD-1 nude, mouse, ip
[2] = A549, 4 h drug exposure under 0% oxygen
[3] = 75% of MTD, single i.p. dose, no radiation, relative to vehicle controls, excision 18 h
[4] = 4 h drug exposure under 0% oxygen

O=C(NCCCCCCO)c1cc([N+](=O)[O-])cc([N+](=O)[O-])c1N1CC1 [IIb-1, 2-(Aziridin-1-yl)-N-(6-Hydroxyhexyl)-3,5-Dinitrobenzamide]
WiDr WT:NTR IC50 Ratio (WiDr (NTR+ve)): 2
IC50 (WiDr (NTR+ve); WiDr): 61 µM
melting point: 189 to 192 °C
A549 (P450R+ve) 20% O2/anoxia IC50 Ratio (A549 (P450R+ve)): <1.3
IC50 (A549 (P450R+ve); [2]): 384 µM

2-[(2-Chloroethyl)-2,4-Dinitro-6-[[[2-(Phosphonooxy)Ethyl]amino]-Carbonyl]Anilino]Ethyl Methanesulfonate [Ib-2mP]
Log kill, cmpd after radiation ([1]; 20% of MTD): 2.56 ± 0.37
Log kill, cmpd after radiation ([1]; 75% of MTD): ≧3.47 ± 0.17
Log kill, cmpd only, Mean ± sem [1, 3]: 2.47 ± 0.08

O=C(NCCCO)c1cc([N+](=O)[O-])cc([N+](=O)[O-])c1N(CCCl)CCCl [IIb-3, 2-[Bis(2-Chloroethyl)Amino]-N-(3-Hydroxypropyl)-3,5-Dinitrobenzamide]
WiDr WT:NTR IC50 Ratio (WiDr (NTR+ve)): 59
IC50 (WiDr (NTR+ve); WiDr): 13.6 µM
melting point: 89 to 91 °C
A549 (P450R+ve) 20% O2/anoxia IC50 Ratio (A549 (P450R+ve)): 9
IC50 (A549 (P450R+ve); [2]): 30 µM

CS(=O)(=O)c1cc([N+](=O)[O-])c(C(=O)NCCO)cc1N(CCBr)CCBr [IIa-7s, 5-[Bis(2-Bromoethyl)Amino]-N-(2-hydroxyethyl)-4-(Methylsulfonyl)-2-Nitrobenzamide]
WiDr WT:NTR IC50 Ratio (WiDr (NTR+ve)): 35
IC50 (WiDr (NTR+ve); WiDr): 9.3 µM
melting point: 126 to 127 °C
A549 (P450R+ve) 20% O2/anoxia IC50 Ratio (A549 (P450R+ve)): 109
IC50 (A549 (P450R+ve); [2]): 2.1 µM

O=C(NCCOP(=O)(O)O)c1cc([N+](=O)[O-])cc([N+](=O)[O-])c1N(CCCl)CCCl [Ib-2P, 2-[[2-[Bis(2-Chloroethyl)Amino]-3,5-Dinitrobenzoyl]Amino]Ethyl Dihydrogen Phosphate]
MTD (in vivo): 237 µmol/kg

O=P1(N(CCCl)CCCl)NCCCO1 (stereo not drawn) [Cyclophosphamide, reference compound]
MTD (in vivo): 750 µmol/kg
Activity against hypoxic cells [1]: lacked activity

2-[(2-Iodoethyl)-2,4-Dinitro-3-[[[3-(Phosphonooxy)Propyl]Amino]-Carbonyl]Anilino]Ethyl Methanesulfonate [Ic-15P]
Log kill, cmpd after radiation ([1]; 20% of MTD): 1.81 ± 0.23
Log kill, cmpd after radiation ([1]; 75% of MTD): 2.80 ± 0.40
Log kill, cmpd only, Mean ± sem [1, 3]: 2.27 ± 0.17

O=C(NCCCOP(=O)(O)O)c1cc(N(CCCl)CCCl)c([N+](=O)[O-])cc1[N+](=O)[O-]
melting point: 195 to 200 °C

2-[(2-Bromoethyl)-2,4-Dinitro-6-[[[2-(Phosphonooxy)Ethyl]Amino]-Carbonyl]Anilino]Ethyl Methanesulfonate [Ib-12P]
Log kill, cmpd after radiation ([1]; 20% of MTD): 1.65 ± 0.19
Log kill, cmpd after radiation ([1]; 75% of MTD): ≧3.38 ± 0.28
Log kill, cmpd only, Mean ± sem [1, 3]: 1.32 ± 0.30

O=C(NCCCOP(=O)(O)O)c1c([N+](=O)[O-])ccc(N(CCBr)CCBr)c1[N+](=O)[O-] [Ic-8P, 3-({3-[Bis(2-Bromoethyl)Amino]-2,6-Dinitrobenzoyl}Amino)Propyl Dihydrogen Phosphate]
MTD (in vivo): 562 µmol/kg

O=C(O)CCCc1ccc(N(CCCl)CCCl)cc1 [Chlorambucil, reference compound]
MTD (in vivo): 237 µmol/kg
Activity against hypoxic cells [1]: lacked activity
Log kill, cmpd only, Mean ± sem [1, 3]: 0.11 ± 0.04

Nc1n[n+]([O-])c2ccccc2[n+]1[O-] [Tirapazamine, reference compound]
MTD (in vivo): 316 µmol/kg
Activity against hypoxic cells [1]: lacked activity
Log kill, cmpd only, Mean ± sem ([1]; in vivo, ip): −0.02 ± 0.01

O=C(NCCCOP(=O)(O)O)c1cc(N(CCBr)CCBr)c([N+](=O)[O-])cc1[N+](=O)[O-] [Ia-8P, 3-[[5-[Bis(2-Bromoethyl)Amino]-2,4-Dinitrobenzoyl]Amino]Propyl Dihydrogen Phosphate]
MTD (in vivo): 1000 µmol/kg

2 [(2-Bromoethyl)-5-[[(3-Hydroxypropyl)Amino]Carbonyl]-2,4-Dinitroanilino]Ethyl Methanesulfonate [IIa-13]
WiDr WT:NTR IC50 Ratio (WiDr (NTR+ve)): 90
IC50 (WiDr (NTR+ve)): 5 µM
A549 (P450R+ve) 20% O2/anoxia IC50 Ratio (A549 (P450R+ve)): 18
IC50 (A549 (P450R+ve); [4]): 32 µM

CC(Br)CN(CC(C)Br)c1c(C(=O)NCCOP(=O)(O)O)cc([N+](=O)[O-])cc1[N+](=O)[O-] (stereo not drawn)
melting point: 157 to 161 °C

O=C(NCCCCCCO)c1cc([N+](=O)[O-])cc([N+](=O)[O-])c1N(CCBr)CCBr [IIb-11, 2-[Bis(2-Bromoethyl)Amino]-N-(6-Hydroxyhexyl)-3,5-Dinitrobenzamide]
WiDr WT:NTR IC50 Ratio (WiDr (NTR+ve)): 2
IC50 (WiDr (NTR+ve); WiDr): 1 µM
A549 (P450R+ve) 20% O2/anoxia IC50 Ratio (A549 (P450R+ve)): 4.5
IC50 (A549 (P450R+ve); [2]): 6.6 µM

O=C(NCCOP(=O)(O)O)c1cc([N+](=O)[O-])cc([N+](=O)[O-])c1N(CCI)CCI [Ib-14P, 2-[[2-[Bis(2-Iodoethyl)Amino]-3,5-Dinitrobenzoyl]Amino]Ethyl Dihydrogen Phosphate]
MTD (in vivo): 562 µmol/kg
Log kill, cmpd only, Mean ± sem [1, 3]: 0.92 ± 0.06

2-((2-Bromoethyl)-3-{[(2-Hydroxyethyl)Amino]carbonyl}-2,4-Dinitroanilino)Ethyl Methanesulfonate [IIc-12]
WiDr WT:NTR IC50 Ratio (WiDr (NTR+ve)): 84
IC50 (WiDr (NTR+ve)): 5 µM
A549 (P450R+ve) 20% O2/anoxia IC50 Ratio (A549 (P450R+ve)): 173
IC50 (A549 (P450R+ve); [4]): 2.6 µM

2-[(2-Iodoethyl)-2,4-Dinitro-6-({[2-(Phosphonooxy)Ethyl]Amino}Carbonyl)-Anilino]Ethyl Methanesulfonate [Ib-15P]
Log kill, cmpd after radiation ([1]; 20% of MTD): 1.74 ± 0.23
Log kill, cmpd after radiation ([1]; 75% of MTD): ≧3.27 ± 0.13
Log kill, cmpd only, Mean ± sem [1, 3]: 2.24 ± 0.15

2-[(2-Bromoethyl)-2,4-Dinitro-3-[[[2-(Phosphonooxy)Ethyl]Amino]-Carbonyl]Anilino]Ethyl Methanesulfonate [Ic-12P]
Log kill, cmpd after radiation ([1]; 20% of MTD): 2.03 ± 0.25
Log kill, cmpd after radiation ([1]; 75% of MTD): ≧2.96 ± 0.31
Log kill, cmpd only, Mean ± sem [1, 3]: 1.04 ± 0.29

O=C(NCCCCCO)c1cc([N+](=O)[O-])cc([N+](=O)[O-])c1N(CCBr)CCBr [IIb-10, 2-[Bis(2-Bromoethyl)Amino]-N-(5-Hydroxypentyl)-3,5-Dinitrobenzamide]
WiDr WT:NTR IC50 Ratio (WiDr (NTR+ve)): 2
IC50 (WiDr (NTR+ve); WiDr): 0.9 µM
A549 (P450R+ve) 20% O2/anoxia IC50 Ratio (A549 (P450R+ve)): 11
IC50 (A549 (P450R+ve); [2]): 2.3 µM

O=C(NCCO)c1c([N+](=O)[O-])ccc(N(CCBr)CCBr)c1[N+](=O)[O-] [IIc-7, 3-[Bis(2-Bromoethyl)Amino]-N-(2-Hydroxyethyl)-2,6-Dinitrobenzamide]
WiDr WT:NTR IC50 Ratio (WiDr (NTR+ve)): 46
IC50 (WiDr (NTR+ve); WiDr): 10 µM
A549 (P450R+ve) 20% O2/anoxia IC50 Ratio (A549 (P450R+ve)): 40
IC50 (A549 (P450R+ve); [2]): 3.9 µM

N[C@@H](Cc1ccc(N(CCCl)CCCl)cc1)C(=O)O [Melphalan, reference compound]
MTD (in vivo): 42.2 µmol/kg
Activity against hypoxic cells [1]: lacked activity

2-((2-Bromoethyl)-3-{[(4-Hydroxybutyl)Amino]Carbonyl}-2,4-Dinitroanilino)Ethyl Methanesulfonate [IIc-14]
WiDr WT:NTR IC50 Ratio (WiDr (NTR+ve)): 16
IC50 (WiDr (NTR+ve)): 20 µM
A549 (P450R+ve) 20% O2/anoxia IC50 Ratio (A549 (P450R+ve)): 57
IC50 (A549 (P450R+ve); [4]): 7.1 µM

2-[(2-Bromoethyl)-2,4-Dinitro-3-[[[3-(Phosphonooxy)Propyl]Amino]-Carbonyl]Anilino]Ethyl Methanesulfonate [Ic-13P]
Log kill, cmpd after radiation ([1]; 20% of MTD): 1.60 ± 0.20
Log kill, cmpd after radiation ([1]; 75% of MTD): ≧3.23 ± 0.08
Log kill, cmpd only, Mean ± sem [1, 3]: 2.36 ± 0.28

2-((2-Iodoethyl)-2-{[(2-Hydroxyethyl)Amino]Carbonyl}-4,6-Dinitroanilino)Ethyl Methanesulfonate [IIb-15]
WiDr WT:NTR IC50 Ratio (WiDr (NTR+ve)): 31
IC50 (WiDr (NTR+ve)): 0.3 µM
A549 (P450R+ve) 20% O2/anoxia IC50 Ratio (A549 (P450R+ve)): 118
IC50 (A549 (P450R+ve); [4]): 0.28 µM

2-((2-Bromoethyl)-3-{[(3-Hydroxypropyl)Amino]Carbonyl}-2,4-Dinitroanilino)Ethyl Methanesulfonate [IIc-13]
WiDr WT:NTR IC50 Ratio (WiDr (NTR+ve)): 95
IC50 (WiDr (NTR+ve)): 4.3 µM
A549 (P450R+ve) 20% O2/anoxia IC50 Ratio (A549 (P450R+ve)): 134
IC50 (A549 (P450R+ve); [4]): 4.5 µM

2-[(2-Chloroethyl)-2,4-Dinitro-3-[[[3-(Phosphonooxy)Propyl]Amino]-Carbonyl]Anilino]Ethyl Methanesulfonate [Ic-6P]
Log kill, cmpd after radiation ([1]; 20% of MTD): 1.64 ± 0.30
Log kill, cmpd after radiation ([1]; 75% of MTD): ≧2.62 ± 0.17
Log kill, cmpd only, Mean ± sem [1, 3]: 1.11 ± 0.20

O=C(NCCCCO)c1cc([N+](=O)[O-])cc([N+](=O)[O-])c1N(CCBr)CCBr [IIb-9, 2-[Bis(2-Bromoethyl)Amino]-N-(4-Hydroxybutyl)-3,5-Dinitrobenzamide]
WiDr WT:NTR IC50 Ratio (WiDr (NTR+ve)): 5
IC50 (WiDr (NTR+ve); WiDr): 0.9 µM
A549 (P450R+ve) 20% O2/anoxia IC50 Ratio (A549 (P450R+ve)): 20
IC50 (A549 (P450R+ve); [2]): 1.4 µM

O=C(NCCCO)c1cc(N(CCCl)CCCl)c([N+](=O)[O-])cc1[N+](=O)[O-] [IIa-3, N-(3-Hydroxypropyl)-5-[bis(2-Chloroethyl)Amino]-2,4-Dinitrobenzamide]
WiDr WT:NTR IC50 Ratio (WiDr (NTR+ve)): 36
IC50 (WiDr (NTR+ve); WiDr): 47 µM
A549 (P450R+ve) 20% O2/anoxia IC50 Ratio (A549 (P450R+ve)): 23
IC50 (A549 (P450R+ve); [2]): 54 µM
